System: LG0703-F948-PDC complex spheroid viability
Assay: Anticancer human tumor LG0703-F948-PDC patient-derived lung adenocarcinoma cell line growth inhibition [RAS]
Settings: for IC50: curve of first compound; for viability, T/C: stronger effect = lower value
Summary of the method: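 Multi-cell-type spheroids: tumor cells plus HUVEC endothelial cells and mesenchymal stem cells. RAS-pathway inhibitors were combined with targeted agents, each dosed in half-log steps down from clinical Cmax, or from 10 microM when Cmax was unknown.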

[1] = second compound 0.000949 µM, first compound 0.0316 µM
[2] = second compound 0.000949 µM, first compound 0.1 µM
[3] = second compound 0.000949 µM, first compound 0.316 µM
[4] = second compound 0.000949 µM, first compound 1 µM
[5] = second compound 0.000949 µM, first compound 3.16 µM
[6] = second compound 0.000949 µM, first compound 10 µM
[7] = second compound 0.003 µM, first compound 0.0316 µM
[8] = second compound 0.003 µM, first compound 0.1 µM
[9] = second compound 0.003 µM, first compound 0.316 µM
[10] = second compound 0.003 µM, first compound 1 µM
[11] = second compound 0.003 µM, first compound 3.16 µM
[12] = second compound 0.003 µM, first compound 10 µM
[13] = second compound 0.00949 µM, first compound 0.0316 µM
[14] = second compound 0.00949 µM, first compound 0.1 µM
[15] = second compound 0.00949 µM, first compound 0.316 µM
[16] = second compound 0.00949 µM, first compound 1 µM
[17] = second compound 0.00949 µM, first compound 3.16 µM
[18] = second compound 0.00949 µM, first compound 10 µM
[19] = second compound 0.03 µM, first compound 0.0316 µM
[20] = second compound 0.03 µM, first compound 0.1 µM
[21] = second compound 0.03 µM, first compound 0.316 µM
[22] = second compound 0.03 µM, first compound 1 µM
[23] = second compound 0.03 µM, first compound 3.16 µM
[24] = second compound 0.03 µM, first compound 10 µM
[25] = second compound 0.0949 µM, first compound 0.0316 µM
[26] = second compound 0.0949 µM, first compound 0.1 µM
[27] = second compound 0.0949 µM, first compound 0.316 µM
[28] = second compound 0.0949 µM, first compound 1 µM
[29] = second compound 0.0949 µM, first compound 3.16 µM
[30] = second compound 0.0949 µM, first compound 10 µM
[31] = second compound 0.3 µM, first compound 0.0316 µM
[32] = second compound 0.3 µM, first compound 0.1 µM
[33] = second compound 0.3 µM, first compound 0.316 µM
[34] = second compound 0.3 µM, first compound 1 µM
[35] = second compound 0.3 µM, first compound 3.16 µM
[36] = second compound 0.3 µM, first compound 10 µM
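Also: spheroids exposed to agents for 7 days.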
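For viability, T/C in this document: 100% = DMSO vehicle wells.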

## CC(C)NCC(C(=O)N1CCN(c2ncnc3c2C(C)CC3O)CC1)c1ccc(Cl)cc1 (centres undefined) + CCn1c(-c2cc(N3CCN(C)CC3)cnc2C(C)OC)c2c3cc(ccc31)-c1csc(n1)CC(NC(=O)C1CC1C)C(=O)N1CCCC(N1)C(=O)OCC(C)(C)C2
Second compound 0.000949 µM
  IC50: 127 nM
Second compound 0.003 µM
  IC50: 34.1 nM
Second compound 0.00949 µM
  IC50: < 31.6 nM
Second compound 0.03 µM
  IC50: < 31.6 nM
Second compound 0.0949 µM
  IC50: < 31.6 nM
Second compound 0.3 µM
  IC50: < 31.6 nM
[1]
  viability, T/C: 64.1%
[2]
  viability, T/C: 54%
[3]
  viability, T/C: 37.1%
[4]
  viability, T/C: 30%
[5]
  viability, T/C: 17.6%
[6]
  viability, T/C: 14.5%
[7]
  viability, T/C: 51%
[8]
  viability, T/C: 35%
[9]
  viability, T/C: 18%
[10]
  viability, T/C: 13.1%
[11]
  viability, T/C: 12.7%
[12]
  viability, T/C: 8.04%
[13]
  viability, T/C: 23.2%
[14]
  viability, T/C: 16.7%
[15]
  viability, T/C: 10.3%
[16]
  viability, T/C: 7.8%
[17]
  viability, T/C: 6.46%
[18]
  viability, T/C: 3.27%
[19]
  viability, T/C: 11.7%
[20]
  viability, T/C: 13.7%
[21]
  viability, T/C: 7.73%
[22]
  viability, T/C: 3.93%
[23]
  viability, T/C: 3.49%
[24]
  viability, T/C: 1%
[25]
  viability, T/C: 10%
[26]
  viability, T/C: 6.85%
[27]
  viability, T/C: 4.55%
[28]
  viability, T/C: 3.71%
[29]
  viability, T/C: 1.27%
[30]
  viability, T/C: 0.64%
[31]
  viability, T/C: 9.37%
[32]
  viability, T/C: 5.76%
[33]
  viability, T/C: 5.01%
[34]
  viability, T/C: 3.25%
[35]
  viability, T/C: 1.87%
[36]
  viability, T/C: 0.61%

## CC(Nc1ccc2c(c1)OCCn1cc(N3C(=O)OCC3C(F)F)nc1-2)C(N)=O (centres undefined) + CCn1c(-c2cc(N3CCN(C)CC3)cnc2C(C)OC)c2c3cc(ccc31)-c1csc(n1)CC(NC(=O)C1CC1C)C(=O)N1CCCC(N1)C(=O)OCC(C)(C)C2
Second compound 0.000949 µM
  IC50: 136 nM
Second compound 0.003 µM
  IC50: < 31.6 nM
Second compound 0.00949 µM
  IC50: < 31.6 nM
Second compound 0.03 µM
  IC50: < 31.6 nM
Second compound 0.0949 µM
  IC50: < 31.6 nM
Second compound 0.3 µM
  IC50: < 31.6 nM
[1]
  viability, T/C: 66.8%
[2]
  viability, T/C: 55%
[3]
  viability, T/C: 37.9%
[4]
  viability, T/C: 22.5%
[5]
  viability, T/C: 16.8%
[6]
  viability, T/C: 8.97%
[7]
  viability, T/C: 38.7%
[8]
  viability, T/C: 31.1%
[9]
  viability, T/C: 20.2%
[10]
  viability, T/C: 12.6%
[11]
  viability, T/C: 8.64%
[12]
  viability, T/C: 3.86%
[13]
  viability, T/C: 20.7%
[14]
  viability, T/C: 16.5%
[15]
  viability, T/C: 7.46%
[16]
  viability, T/C: 5.56%
[17]
  viability, T/C: 4.28%
[18]
  viability, T/C: 1.67%
[19]
  viability, T/C: 10.8%
[20]
  viability, T/C: 8.93%
[21]
  viability, T/C: 4%
[22]
  viability, T/C: 3.07%
[23]
  viability, T/C: 1.45%
[24]
  viability, T/C: 1.14%
[25]
  viability, T/C: 8.21%
[26]
  viability, T/C: 5.47%
[27]
  viability, T/C: 3.07%
[28]
  viability, T/C: 2.1%
[29]
  viability, T/C: 1.39%
[30]
  viability, T/C: 0.7%
[31]
  viability, T/C: 6.47%
[32]
  viability, T/C: 4.12%
[33]
  viability, T/C: 2.78%
[34]
  viability, T/C: 2.27%
[35]
  viability, T/C: 1.25%
[36]
  viability, T/C: 0.71%

Source: PubChem BioAssay AID2060890 (Molecular Pharmacology Branch, DTP, NCI, 2025)
